Values belong to the molecule of their own block, whether it stands above or below them.
What was measured:
[1] = system: cumulus enclosed oocytes (CEO); assay: Oocyte maturation assay, cumulus enclosed oocytes (CEO test); format: cell-based, mouse
Procedure: (§1) An Agonistic Oocyte Assay Can be Performed as Follows: Oocytes were obtained from immature female mice (C57BL/6J×DBA/2J F1-hybrid, Bomholtgaard, Denmark) weighing 13-16 grams, that were kept under controlled temperature (20-22° C.), light (lights on 06.00-18.00) and relative humidity (50-70%). The mice received an intra-peritoneal injection of 0.2 ml gonadotropins (Gonal-F, Serono) containing 20 IU FSH and 48 hours later the animals were killed by cervical dislocation. The ovaries were dissected out and the oocytes were isolated in Hx-medium (see below) under a stereo microscope by manual rupture of the follicles using a pair of 27 gauge needles. Spherical oocytes displaying an intact germinal vesicle (hereinafter designated GV) were divided in cumulus enclosed oocytes (hereinafter designated CEO) and naked oocytes (hereinafter designated NO) and placed in α-minimum essential medium (α-MEM without ribonucleosides, Gibco BRL, Cat. No. 22561) supplemented with 3 mg/ml bovine serum albumin (BSA, Sigma Cat. No. A-7030), 5 mg/ml human serum albumin (HSA, Statens Seruminstitute, Denmark), 0.23 mM pyruvate (Sigma, Cat. No S-8636), 2 mM glutamine (Flow Cat. No. 16-801), 100 IU/ml penicillin and 100 μg/ml streptomycin (Flow, Cat No. 16-700). This medium was supplemented with 3 mM hypoxanthine (Sigma Cat. No. H-9377) and designated Hx-medium. The oocytes were rinsed three times in Hx-medium and oocytes of uniform size were divided into groups of CEO and NO. CEO and NO were cultured in 4-well multidishes (Nunclon, Denmark) in which each well contained 0.4 ml of Hx-medium. One control well (i.e., 35-45 oocytes cultured in identical medium with no addition of test compound) was always cultured simultaneously with 3 test wells (35-45 oocytes per well supplemented with test compound). The oocytes were cultured in a humidified atmosphere of 5% CO2 in air for 24 hours at 37° C. By the end of the culture period, the number of oocytes with germinal vesicle (hereinafter designated GV), GVBD, and polar body (herein designated PB), respectively, were counted using a stereomicroscope ([…] MZ 12). The percentage GVBD, defined as percentage of oocytes undergoing GVBD per total number of oocytes in that well, was calculated as: % GVBD=100×(number of GVBD+number of PB)/(total number oocytes). The % PB was defined as percentage of oocytes displaying one extruded polar body per total number of oocytes in that well. […] The relative effect of the tested compound is calculated as follows: Relative effect=100×((test GVBD %-negative control GVBD %)/(FF-MAS GVBD %-negative control GVBD %)).

PXR = molecular target: T1, PXR (Homo sapiens, UniProt O75469); assay: Agonist activity against PXR
T1 sequence (O75469 1-434): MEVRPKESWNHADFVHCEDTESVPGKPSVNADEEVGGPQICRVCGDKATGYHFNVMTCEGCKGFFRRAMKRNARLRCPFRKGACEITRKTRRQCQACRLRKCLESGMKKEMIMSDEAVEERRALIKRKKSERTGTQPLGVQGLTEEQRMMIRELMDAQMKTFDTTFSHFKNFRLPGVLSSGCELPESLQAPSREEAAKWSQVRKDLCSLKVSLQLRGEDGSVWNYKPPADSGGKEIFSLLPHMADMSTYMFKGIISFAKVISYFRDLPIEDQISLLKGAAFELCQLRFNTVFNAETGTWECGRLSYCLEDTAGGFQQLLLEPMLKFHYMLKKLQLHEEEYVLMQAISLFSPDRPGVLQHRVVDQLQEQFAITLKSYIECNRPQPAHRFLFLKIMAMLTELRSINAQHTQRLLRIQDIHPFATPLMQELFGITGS

naked oocytes (NO) [2] = assay: Agonistic oocyte assay, naked oocytes (NO / NkO test); format: cell-based, mouse; conditions: for % GVBD + PB: NkO test
Procedure: as §1

LXRα [3] = molecular target: T2, LXRα (Homo sapiens, UniProt Q13133); assay: Agonist activity against LXRα
T2 sequence (Q13133 1-447): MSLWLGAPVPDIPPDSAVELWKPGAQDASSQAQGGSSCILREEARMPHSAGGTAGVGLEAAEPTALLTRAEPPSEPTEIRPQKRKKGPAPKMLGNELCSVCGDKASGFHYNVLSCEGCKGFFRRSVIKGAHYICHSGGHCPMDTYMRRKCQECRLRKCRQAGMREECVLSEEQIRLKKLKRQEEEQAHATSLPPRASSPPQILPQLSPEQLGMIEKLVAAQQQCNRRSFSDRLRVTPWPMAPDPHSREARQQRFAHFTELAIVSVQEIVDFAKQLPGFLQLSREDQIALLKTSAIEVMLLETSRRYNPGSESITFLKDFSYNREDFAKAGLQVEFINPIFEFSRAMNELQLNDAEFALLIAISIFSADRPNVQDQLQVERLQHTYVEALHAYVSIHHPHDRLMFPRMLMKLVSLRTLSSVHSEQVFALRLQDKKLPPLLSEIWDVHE

LXRβ [4] = molecular target: T3, LXRβ (Homo sapiens, UniProt P55055); assay: Agonist activity against LXRβ
T3 sequence (P55055 1-460): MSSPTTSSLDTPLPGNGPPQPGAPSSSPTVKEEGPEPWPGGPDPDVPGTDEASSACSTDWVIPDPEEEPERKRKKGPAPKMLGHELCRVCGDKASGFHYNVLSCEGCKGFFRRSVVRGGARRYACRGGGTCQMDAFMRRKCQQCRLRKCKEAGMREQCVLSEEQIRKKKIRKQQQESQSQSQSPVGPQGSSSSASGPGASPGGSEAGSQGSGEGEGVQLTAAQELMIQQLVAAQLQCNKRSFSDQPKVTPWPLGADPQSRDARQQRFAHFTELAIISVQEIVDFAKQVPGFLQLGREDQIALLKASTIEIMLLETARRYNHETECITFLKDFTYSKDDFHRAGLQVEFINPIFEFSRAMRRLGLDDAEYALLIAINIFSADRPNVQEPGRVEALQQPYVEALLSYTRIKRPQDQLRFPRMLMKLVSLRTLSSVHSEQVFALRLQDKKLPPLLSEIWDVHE

FXRbeta = assay: FFMAS on mouse FXRbeta (FIG. 3); format: biochemical
LXRα [5] = molecular target: T2, LXRα; assay: Recruitment of co-factors to LXRα (HTRF assay); format: biochemical
Excerpt: (§2) The HTRF assay is described in Methods 25 (2001), 54-61. (HTRF is an abbreviation for homogeneous time-resolved fluorescence.)
(§3) The EC50 value is the dose which leads to a 50% saturation.

naked oocytes (NO) [6] = conditions: Byskov et al. Nature 374 (1995); cited from earlier work
FXRalpha = molecular target: T4, FXRalpha (Homo sapiens, UniProt Q96RI1); assay: FFMAS on human FXRalpha (FIG. 2); format: biochemical
T4 sequence (Q96RI1 1-486): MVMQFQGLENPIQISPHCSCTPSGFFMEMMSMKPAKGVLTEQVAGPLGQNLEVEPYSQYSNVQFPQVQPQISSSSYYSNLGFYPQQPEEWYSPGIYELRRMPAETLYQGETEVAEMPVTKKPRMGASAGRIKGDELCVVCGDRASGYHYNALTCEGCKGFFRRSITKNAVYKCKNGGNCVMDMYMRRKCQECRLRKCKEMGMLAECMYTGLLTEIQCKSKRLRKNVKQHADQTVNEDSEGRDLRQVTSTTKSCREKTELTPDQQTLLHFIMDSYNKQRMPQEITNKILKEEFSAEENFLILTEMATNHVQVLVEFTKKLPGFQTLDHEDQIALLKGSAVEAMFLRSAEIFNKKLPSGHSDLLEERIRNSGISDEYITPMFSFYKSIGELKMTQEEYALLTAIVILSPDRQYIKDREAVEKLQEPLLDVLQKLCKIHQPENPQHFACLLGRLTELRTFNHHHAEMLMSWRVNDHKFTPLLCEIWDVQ

LXRβ [7] = molecular target: T3, LXRβ; assay: Recruitment of co-factors to LXRβ (HTRF assay); format: biochemical
Excerpt: as §2, §3

LXRα [8] = molecular target: T2, LXRα; conditions: Janowski et al. Nature 383 (1996); no direct binding explored; cited from earlier work
[9] = dose which leads to 50% saturation
[10] = 10 μM, naked oocytes (NO) cultured in vitro for 24 hours in Hx-medium

Activity against PXR (PXR): showed activity | Activity against LXRα (LXRα [3]): showed activity | Activity against LXRβ (LXRβ [4]): showed activity
Compound: O=C(O)Cc1cccc(OCCCN(Cc2cccc(C(F)(F)F)c2Cl)CC(c2ccccc2)c2ccccc2)c1 [90-8684, 2-(3-{3-[[2-chloro-3-(trifluoromethyl)benzyl](2,2-diphenylethyl)amino]propoxy}phenyl)acetic acid]
% GVBD + PB ([1]; Hx + 2.5 μM): 69 ± 3% | % GVBD + PB ([1]; Hx + 5 μM): 71 ± 6% | % GVBD + PB ([1]; Hx + 10 μM): 86 ± 7% | % GVBD + PB (naked oocytes (NO) [2]; Hx + 5 μM): 45 ± 5% | % GVBD + PB (naked oocytes (NO) [2]; Hx + 10 μM): 49 ± 8% | % GVBD + PB (naked oocytes (NO) [2]; Hx + 15 μM): 54 ± 5% | Meiosis-inducing effect in an oocyte maturation assay (naked oocytes (NO) [2]; mouse oocytes, NkO and CEO tests): dose-dependent maturation of the oocytes

Compound: CC(C)=CCC[C@@H](C)[C@H]1CC=C2C3=C(CC[C@@]21C)[C@@]1(C)CC[C@H](O)C(C)(C)[C@@H]1CC3 [FF-MAS, 4,4-dimethyl-5α-cholesta-8,14,24-triene-3β-ol]
Behaviour on mouse FXRbeta (FXRbeta): partial agonist | % GVBD + PB ([1]; Hx + 10 μM): 78 ± 9% | Behaviour on human LXRs (LXRα) (LXRα [5]; FIGS. 1A and 1B): agonist | EC50 (LXRα [5]; [9]): ~67 nM | Induction of meiosis in NO in vitro (naked oocytes (NO) [6]): induce meiosis | Behaviour on human FXRalpha (FXRalpha): partial agonist | Behaviour on human LXRs (LXRβ) (LXRβ [7]; FIGS. 1A and 1B): agonist | EC50 (LXRβ [7]; [9]): ~21 nM | Mean Relative Effect (naked oocytes (NO) [2]; 10 μM, NO, 24 hours, indexed: control 0, FF-MAS 100): 100 | Mean % GVBD (naked oocytes (NO) [2]; [10]): 86.1% | Mean % PB (naked oocytes (NO) [2]; [10]): 28.5% | % GVBD + PB (naked oocytes (NO) [2]; Hx + 10 μM): 90 ± 8% | Transactivation of LXRα (LXRα [8]): able to transactivate LXRα

Source: patent US20060078874A1, “Use of nuclear hormone receptors” (Novo Nordisk A/S, priority 2002, published 2006)
